Laboratory results as given in PubChem BioAssay (NCI).
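These data come from cells grown in 96-well plates and exposed to compound for 48 hours at five concentrations. The concentration for full growth arrest is given as TGI.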

Experiments:
Assay in all cases: NCI anticancer screen, dose series, 48 h
786-0 renal = test system: 786-0 renal
A498 renal = test system: A498 renal
A549 NSCLC = test system: A549 NSCLC
ACHN renal = test system: ACHN renal
BT-549 breast = test system: BT-549 breast
CAKI-1 renal = test system: CAKI-1 renal
CCRF-CEM leukemia = test system: CCRF-CEM leukemia
COLO 205 colon = test system: COLO 205 colon
DU-145 prostate = test system: DU-145 prostate
EKVX NSCLC = test system: EKVX NSCLC
HCC-2998 colon = test system: HCC-2998 colon
HCT-116 colon = test system: HCT-116 colon
HCT-15 colon = test system: HCT-15 colon
HL-60(TB) leukemia = test system: HL-60(TB) leukemia
HOP-62 NSCLC = test system: HOP-62 NSCLC
HS 578T breast = test system: HS 578T breast
HT29 colon = test system: HT29 colon
IGROV1 ovarian = test system: IGROV1 ovarian
K-562 leukemia = test system: K-562 leukemia
KM12 colon = test system: KM12 colon
LOX IMVI melanoma = test system: LOX IMVI melanoma
M14 melanoma = test system: M14 melanoma
MALME-3M melanoma = test system: MALME-3M melanoma
MCF7 breast = test system: MCF7 breast
MDA-MB-231 breast = test system: MDA-MB-231 breast
MDA-MB-435 = test system: MDA-MB-435
MDA-N = test system: MDA-N
MOLT-4 leukemia = test system: MOLT-4 leukemia
NCI-H226 lung = test system: NCI-H226 lung
NCI-H23 lung = test system: NCI-H23 lung
NCI-H460 lung = test system: NCI-H460 lung
NCI/ADR-RES ovarian = test system: NCI/ADR-RES ovarian
OVCAR-3 ovarian = test system: OVCAR-3 ovarian
OVCAR-4 ovarian = test system: OVCAR-4 ovarian
OVCAR-5 ovarian = test system: OVCAR-5 ovarian
OVCAR-8 ovarian = test system: OVCAR-8 ovarian
PC-3 prostate = test system: PC-3 prostate
RPMI-8226 leukemia = test system: RPMI-8226 leukemia
RXF 393 renal = test system: RXF 393 renal
SF-268 CNS = test system: SF-268 CNS
SF-295 CNS = test system: SF-295 CNS
SF-539 CNS = test system: SF-539 CNS
SK-MEL-2 melanoma = test system: SK-MEL-2 melanoma
SK-MEL-28 melanoma = test system: SK-MEL-28 melanoma
SK-MEL-5 melanoma = test system: SK-MEL-5 melanoma
SK-OV-3 ovarian = test system: SK-OV-3 ovarian
SN12C renal = test system: SN12C renal
SNB-19 CNS = test system: SNB-19 CNS
SR leukemia = test system: SR leukemia
SW-620 colon = test system: SW-620 colon
T-47D breast = test system: T-47D breast
TK-10 renal = test system: TK-10 renal
U251 CNS = test system: U251 CNS
UACC-257 melanoma = test system: UACC-257 melanoma
UACC-62 melanoma = test system: UACC-62 melanoma
UO-31 renal = test system: UO-31 renal

Measured: TGI

C=CCCC1CCCCNC1=S (stereo unspecified)
> 10 µM: all assays above
